Reference: ChEMBL document CHEMBL5727535, “NK-3 receptor selective antagonist compounds, pharmaceutical composition and methods for use in NK-3 receptors mediated disorders” (2020)

Molecular target: T1, Neuromedin-K receptor (Homo sapiens, UniProt P29371)
T1 sequence (P29371 whole entry): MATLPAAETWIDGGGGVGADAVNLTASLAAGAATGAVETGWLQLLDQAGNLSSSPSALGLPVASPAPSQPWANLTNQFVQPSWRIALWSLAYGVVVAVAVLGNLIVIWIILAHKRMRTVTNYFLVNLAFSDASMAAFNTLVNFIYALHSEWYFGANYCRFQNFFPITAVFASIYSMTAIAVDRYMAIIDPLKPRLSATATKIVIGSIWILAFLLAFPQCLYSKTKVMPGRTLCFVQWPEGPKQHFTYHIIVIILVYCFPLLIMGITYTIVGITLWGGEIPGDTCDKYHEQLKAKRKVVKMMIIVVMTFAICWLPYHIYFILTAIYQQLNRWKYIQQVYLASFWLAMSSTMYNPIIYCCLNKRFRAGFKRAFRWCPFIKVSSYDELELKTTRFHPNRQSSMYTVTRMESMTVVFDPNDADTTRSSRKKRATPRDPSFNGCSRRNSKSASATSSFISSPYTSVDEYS
Experiment: 3H-SB222200 Binding Competition Assay with Human NK-3 Receptor: The ability of the compounds of the invention to inhibit the binding of the NK-3 receptor selective antagonist SB222200 was assessed by an in vitro radioligand binding assay. Membranes were prepared from Chinese hamster ovary recombinant cells which express the human NK3 receptor. The membranes were incubated with 5 nM 3H-SB222200_(ARC) in a HEPES 25 mM/NaCl 0.1M/CaCl2 1 mM/MgCl2 5 Mm/BSA 0.5%/Saponin 10 μg/ml buffer at pH 7.4 and various concentrations of the compounds of the invention. The amount of tritiated SB222200 bound to the receptor was determined after filtration by the quantification of membrane associated radioactivity using the TopCount-NXT reader (Packard). Competition curves were obtained for compounds of the invention and the concentrations of compounds which displaced 50% of bound radioligand (IC50) were determined and then apparent inhibition constant Ki values were calculated by the following equation: Ki=IC50/(1+[L]/KD) where [L] is the concentration of free radioligand and KD is its dissociation constant at the receptor, derived from saturation binding experiments (Cheng and Prusoff, 1973).

Ki | SMILES
< 0.5 µM | C[C@@H]1c2nnc(-c3csc(-c4ccc(Cl)cc4)n3)n2CCN1C(=O)c1ccc(F)cc1
< 0.5 µM | O=C(c1ccc(F)cc1)N1CCn2c(nnc2-c2csc(-c3ccc(Cl)cc3Cl)n2)C1
< 0.5 µM | CC1c2nnc(-c3csc(-c4ccc(F)cc4)n3)n2CCN1C(=O)c1ccc(Cl)c(F)c1 (stereo not drawn)
> 5 µM | Cn1nc(C(=O)N2CCn3c(nnc3-c3ccccn3)C2)cc1-c1ccc(Cl)cc1
< 0.5 µM | O=C(c1ccc(F)cc1)N1CCn2c(nnc2-c2csc(-c3cccc(Cl)c3Cl)n2)C1
< 0.5 µM | O=C(c1ccc(F)cc1)N1CCn2c(nnc2-c2csc(-c3cc(Cl)cc(Cl)c3)n2)C1
< 0.5 µM | O=C(c1ccc(F)cc1)N1CCn2c(nnc2-c2ccc(Cl)cn2)C1
< 0.5 µM | O=C(c1ccc(-c2cccs2)cc1)N1CCn2c(nnc2-c2csc(Cc3ccc(Cl)cc3)n2)C1
< 0.5 µM | CC1c2nnc(-c3csc(-c4ccc(F)cc4)n3)n2CCN1C(=O)c1ccc(Cl)c(Cl)c1 (stereo not drawn)
< 0.5 µM | O=C(c1ccc(-c2cccs2)cc1)N1CCn2c(nnc2-c2csc(-c3ccc(Br)cc3)n2)C1
< 0.5 µM | CC1c2nnc(-c3csc(-c4ccc(F)cc4)n3)n2CCN1C(=O)c1ccc(F)c(Cl)c1 (stereo not drawn)
< 0.5 µM | O=C(c1ccc(F)cc1)N1CCn2c(nnc2-c2csc(-c3ccc(Cl)cc3)n2)C1
< 0.5 µM | O=C(c1ccc(F)cc1)N1CCn2c(nnc2-c2csc(-c3ccc(Br)cc3)n2)C1
< 0.5 µM | O=C(c1ccc(-c2ccccc2)cc1)N1CCn2c(nnc2-c2csc(-c3ccccc3Cl)n2)C1
< 0.5 µM | O=C(c1ccc(-c2cccs2)cc1)N1CCn2c(nnc2-c2csc(-c3ccccc3Cl)n2)C1
< 0.5 µM | O=C(c1ccc(F)cc1)N1CCn2c(nnc2-c2csc(-c3ccccc3Cl)n2)C1
< 0.5 µM | O=C(c1ccc(F)cc1)N1CCn2c(nnc2-c2csc(-c3cccc(Cl)c3)n2)C1
< 0.5 µM | CC1c2nnc(-c3csc(-c4ccccc4Cl)n3)n2CCN1C(=O)c1ccc(F)cc1 (stereo not drawn)
